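Following 48 hours of exposure in 96-well plates, responses at five concentrations were used to interpolate endpoints linearly. GI50: concentration for 50% inhibition of growth.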 Activity calls are given as the source filed them. Rule as the data show it: active = GI50 up to about 1.1 µM and inactive = higher. Non-standard residues stand in square brackets, D forms with d. Residues, ends and D or L forms follow the SMILES beside them. *: point of attachment. Ac5c = NC1(C(=O)O)CCCC1; Boc = CC(C)(C)OC(=O)*; tBu = CC(C)(C)*
Assays:
Assay in all cases: inhibition of tumour cell growth, NCI panel, 48 h
Malme-3M = test system: Malme-3M
EKVX = test system: EKVX
CCRF-CEM = test system: CCRF-CEM
NCI-H460 = test system: NCI-H460
OVCAR-3 = test system: OVCAR-3
HT-29 = test system: HT-29
SNB-75 = test system: SNB-75
MOLT-4 = test system: MOLT-4
SW-620 = test system: SW-620
UO-31 = test system: UO-31
HCT-116 = test system: HCT-116
U-251 = test system: U-251
KM12 = test system: KM12
NCI-H23 = test system: NCI-H23
HOP-92 = test system: HOP-92
MDA-MB-231 = test system: MDA-MB-231
A549 = test system: A549
CAKI-1 = test system: CAKI-1
SK-MEL-5 = test system: SK-MEL-5
BT-549 = test system: BT-549

Measured: GI50

Cc1ccc([N+](=O)[O-])c2c(NCCNC(=O)Cn3ccnc3[N+](=O)[O-])ccnc12
inactive: Malme-3M 28.6 µM | EKVX > 100 µM | CCRF-CEM > 100 µM | NCI-H460 28.2 µM | OVCAR-3 23.2 µM | HT-29 32.4 µM | SNB-75 > 100 µM | MOLT-4 > 100 µM | SW-620 37.7 µM | UO-31 > 100 µM | HCT-116 43.7 µM | U-251 36.6 µM | KM12 52.2 µM | NCI-H23 54.2 µM | HOP-92 26.5 µM | MDA-MB-231 32 µM | A549 48.5 µM | CAKI-1 31.8 µM | SK-MEL-5 17.8 µM

CC(=O)OI1NC(=O)c2ccccc21
inactive: Malme-3M > 100 µM | EKVX > 100 µM | CCRF-CEM 76.7 µM | OVCAR-3 > 100 µM | HT-29 > 100 µM | SNB-75 > 100 µM | MOLT-4 > 100 µM | SW-620 > 100 µM | UO-31 > 100 µM | HCT-116 > 100 µM | U-251 > 100 µM | KM12 > 100 µM | NCI-H23 > 100 µM | HOP-92 > 100 µM | MDA-MB-231 > 100 µM | A549 > 100 µM | SK-MEL-5 > 100 µM

COC(=O)c1ccccc1/C=C1\Cc2cc(C)cc(C)c2C1=O
inactive: Malme-3M > 100 µM | EKVX > 100 µM | CCRF-CEM > 100 µM | NCI-H460 > 100 µM | OVCAR-3 > 100 µM | HT-29 > 100 µM | SNB-75 72.4 µM | MOLT-4 > 100 µM | SW-620 > 100 µM | HCT-116 > 100 µM | U-251 > 100 µM | KM12 > 100 µM | NCI-H23 > 100 µM | MDA-MB-231 > 100 µM | A549 > 100 µM | SK-MEL-5 > 100 µM

Nc1ccc(C(=O)c2cn(CCN3CCOCC3)c3ccccc23)c2ccccc12
inactive: Malme-3M 34.1 µM | EKVX 21.2 µM | CCRF-CEM 3.94 µM | NCI-H460 34.3 µM | BT-549 19.1 µM | OVCAR-3 32.6 µM | HT-29 22.5 µM | MOLT-4 19.4 µM | SW-620 30.8 µM | UO-31 44.4 µM | HCT-116 31.7 µM | U-251 55.6 µM | KM12 31.1 µM | NCI-H23 23.8 µM | A549 40.9 µM | CAKI-1 62.8 µM | SK-MEL-5 20.7 µM

Cc1cc(C)nc(NS(=O)(=O)c2ccc(Nc3c4ccccc4nc4c(C(=O)N5CCN(CCO)CC5)cccc34)cc2)n1
inactive: Malme-3M > 100 µM | EKVX > 100 µM | CCRF-CEM > 100 µM | NCI-H460 > 100 µM | OVCAR-3 > 100 µM | HT-29 > 100 µM | SNB-75 95.7 µM | MOLT-4 > 100 µM | SW-620 > 100 µM | UO-31 > 100 µM | HCT-116 > 100 µM | U-251 > 100 µM | KM12 > 100 µM | NCI-H23 > 100 µM | HOP-92 > 100 µM | A549 > 100 µM | CAKI-1 > 100 µM | SK-MEL-5 > 100 µM

CC(C)N(C(=O)C12C3C4C1C1C4(C#N)C3C12C(=O)O)C(C)C (stereo not drawn)
inactive: Malme-3M > 100 µM | EKVX > 100 µM | CCRF-CEM > 48.4 µM | NCI-H460 > 67.3 µM | OVCAR-3 > 100 µM | HT-29 > 100 µM | SNB-75 > 100 µM | MOLT-4 > 100 µM | SW-620 > 60.3 µM | UO-31 > 100 µM | HCT-116 > 52.8 µM | U-251 > 100 µM | KM12 > 100 µM | NCI-H23 > 100 µM | HOP-92 > 100 µM | A549 97.9 µM | CAKI-1 > 100 µM | SK-MEL-5 > 100 µM

CC(OC(C)(C)C)C(NC(=O)C(CCCCNC(=O)OC(C)(C)C)NC(=O)C(Cc1c[nH]c2ccccc12)NC(=O)C(N)Cc1ccccc1)C(=O)NC(Cc1ccccc1)C(=O)NC1(C(=O)O)CCCC1 (stereo not drawn) (H-FWK(Boc)T(tBu)F[Ac5c]-OH; configuration not given here)
inactive: Malme-3M > 100 µM | EKVX > 100 µM | CCRF-CEM > 100 µM | NCI-H460 > 100 µM | OVCAR-3 > 100 µM | HT-29 > 100 µM | SNB-75 > 100 µM | MOLT-4 > 100 µM | SW-620 > 100 µM | UO-31 > 100 µM | HCT-116 > 100 µM | U-251 > 100 µM | KM12 > 100 µM | NCI-H23 > 100 µM | HOP-92 > 100 µM | MDA-MB-231 > 100 µM | A549 > 100 µM | CAKI-1 > 100 µM | SK-MEL-5 > 100 µM

COc1ccc(/C=C/c2cc(OC)cc(=O)o2)cc1 [YANGONIN]
inactive: Malme-3M > 100 µM | EKVX > 100 µM | CCRF-CEM > 100 µM | NCI-H460 > 100 µM | OVCAR-3 > 100 µM | HT-29 > 100 µM | SNB-75 20 µM | MOLT-4 > 100 µM | SW-620 > 100 µM | UO-31 > 100 µM | HCT-116 77.6 µM | U-251 27.1 µM | KM12 57.4 µM | NCI-H23 51.8 µM | HOP-92 45.2 µM | MDA-MB-231 > 100 µM | A549 > 100 µM | CAKI-1 > 100 µM | SK-MEL-5 > 100 µM

— ChEMBL document CHEMBL1201862, “PubChem BioAssay data set” (2004)
